Laboratory results published in PubChem BioAssay AID1259407 (Chemical Carcinogenesis Research Information System (CCRIS), 2018).
Activity calls are given as the source filed them. How the calls were made is not given here.

Test system: CCRIS mutagenicity, Ames/micronucleus/aberration tests
Assay: CCRIS mutagenicity studies
[1] = Test System: AMES SALMONELLA TYPHIMURIUM, Strain/Indicator: TA98, Metabolic Activation: NONE, Method: PREINCUBATION
[2] = Test System: AMES SALMONELLA TYPHIMURIUM, Strain/Indicator: TA98, Metabolic Activation: NONE, Method: STANDARD PLATE

CC(=O)N[C@@H]1[C@@H](O[C@@H]2O[C@H](C(=O)O)[C@@H](O[C@@H]3O[C@H](CO)[C@@H](O)[C@H](O[C@@H]4O[C@H](C(=O)O)[C@@H](O)[C@H](O)[C@H]4O)[C@H]3NC(C)=O)[C@H](O)[C@H]2O)[C@H](O)[C@@H](CO)O[C@H]1O
mutagenic call (Test System: AMES SALMONELLA TYPHIMURIUM, Strain/Indicator: TA98, Metabolic Activation: NONE): inactive; negative | mutagenic call [1]: inactive; negative | mutagenic call (Test System: AMES SALMONELLA TYPHIMURIUM, Strain/Indicator: TA98, Metabolic Activation: RAT, LIVER, S-9, PHENOBARBITAL AND 5,6-BENZOFLAVONE, Method: PREINCUBATION): inactive; negative | mutagenic call (Test System: AMES SALMONELLA TYPHIMURIUM, Strain/Indicator: TA98, Metabolic Activation: RAT, LIVER, S-9, Method: PREINCUBATION): inactive; negative | mutagenic call (Test System: AMES SALMONELLA TYPHIMURIUM, Strain/Indicator: TA98, Metabolic Activation: S-9): inactive; negative | mutagenic call (Test System: AMES SALMONELLA TYPHIMURIUM, Strain/Indicator: TA100, Metabolic Activation: NONE): inactive; negative | mutagenic call (Test System: AMES SALMONELLA TYPHIMURIUM, Strain/Indicator: TA100, Metabolic Activation: NONE, Method: PREINCUBATION): inactive; negative | mutagenic call (Test System: AMES SALMONELLA TYPHIMURIUM, Strain/Indicator: TA100, Metabolic Activation: RAT, LIVER, S-9, PHENOBARBITAL AND 5,6-BENZOFLAVONE, Method: PREINCUBATION): inactive; negative | mutagenic call (Test System: AMES SALMONELLA TYPHIMURIUM, Strain/Indicator: TA100, Metabolic Activation: RAT, LIVER, S-9, Method: PREINCUBATION): inactive; negative | mutagenic call (Test System: AMES SALMONELLA TYPHIMURIUM, Strain/Indicator: TA100, Metabolic Activation: S-9): inactive; negative | mutagenic call (Test System: AMES SALMONELLA TYPHIMURIUM, Strain/Indicator: TA1535, Metabolic Activation: NONE): inactive; negative | mutagenic call (Test System: AMES SALMONELLA TYPHIMURIUM, Strain/Indicator: TA1535, Metabolic Activation: NONE, Method: PREINCUBATION): inactive; negative | mutagenic call (Test System: AMES SALMONELLA TYPHIMURIUM, Strain/Indicator: TA1535, Metabolic Activation: RAT, LIVER, S-9, PHENOBARBITAL AND 5,6-BENZOFLAVONE, Method: PREINCUBATION): inactive; negative | mutagenic call (Test System: AMES SALMONELLA TYPHIMURIUM, Strain/Indicator: TA1535, Metabolic Activation: RAT, LIVER, S-9, Method: PREINCUBATION): inactive; negative | mutagenic call (Test System: AMES SALMONELLA TYPHIMURIUM, Strain/Indicator: TA1535, Metabolic Activation: S-9): inactive; negative | mutagenic call (Test System: AMES SALMONELLA TYPHIMURIUM, Strain/Indicator: TA1537, Metabolic Activation: NONE): inactive; negative | mutagenic call (Test System: AMES SALMONELLA TYPHIMURIUM, Strain/Indicator: TA1537, Metabolic Activation: NONE, Method: PREINCUBATION): inactive; negative | mutagenic call (Test System: AMES SALMONELLA TYPHIMURIUM, Strain/Indicator: TA1537, Metabolic Activation: RAT, LIVER, S-9, PHENOBARBITAL AND 5,6-BENZOFLAVONE, Method: PREINCUBATION): inactive; negative | mutagenic call (Test System: AMES SALMONELLA TYPHIMURIUM, Strain/Indicator: TA1537, Metabolic Activation: RAT, LIVER, S-9, Method: PREINCUBATION): inactive; negative | mutagenic call (Test System: AMES SALMONELLA TYPHIMURIUM, Strain/Indicator: TA1537, Metabolic Activation: S-9): inactive; negative | mutagenic call (Test System: E. COLI, Strain/Indicator: WP2 UVRA, Metabolic Activation: NONE): inactive; negative | mutagenic call (Test System: E. COLI, Strain/Indicator: WP2 UVRA, Metabolic Activation: S-9): inactive; negative | mutagenic call (Test System: E.COLI, Strain/Indicator: WP2 UVRA, Metabolic Activation: NONE, Method: PREINCUBATION): inactive; negative | mutagenic call (Test System: E.COLI, Strain/Indicator: WP2 UVRA, Metabolic Activation: RAT, LIVER, S-9, PHENOBARBITAL AND 5,6-BENZOFLAVONE, Method: PREINCUBATION): inactive; negative | mutagenic call (Test System: E.COLI, Strain/Indicator: WP2 UVRA, Metabolic Activation: RAT, LIVER, S-9, Method: PREINCUBATION): inactive; negative

O=[N+]([O-])c1ccc2c(ccc3ccccc32)c1
mutagenic call (Test System: AMES SALMONELLA TYPHIMURIUM, Strain/Indicator: TA98(1,8-DNP6), Metabolic Activation: NONE, Method: STANDARD PLATE): active; positive | mutagenic call (Test System: AMES SALMONELLA TYPHIMURIUM, Strain/Indicator: TA98(NR), Metabolic Activation: NONE, Method: STANDARD PLATE): active; positive | mutagenic call [1]: active; positive | mutagenic call [2]: active; positive | mutagenic call (Test System: AMES SALMONELLA TYPHIMURIUM, Strain/Indicator: TA98, Metabolic Activation: RAT, LIVER, S-9, PCB (10%), Method: PREINCUBATION): active; positive | mutagenic call (Test System: AMES SALMONELLA TYPHIMURIUM, Strain/Indicator: TA7001, Metabolic Activation: NONE, Method: PREINCUBATION): active; positive | mutagenic call (Test System: AMES SALMONELLA TYPHIMURIUM, Strain/Indicator: TA7002, Metabolic Activation: NONE, Method: PREINCUBATION): active; positive | mutagenic call (Test System: AMES SALMONELLA TYPHIMURIUM, Strain/Indicator: TA7003, Metabolic Activation: NONE, Method: PREINCUBATION): active; positive | mutagenic call (Test System: AMES SALMONELLA TYPHIMURIUM, Strain/Indicator: TA7004, Metabolic Activation: NONE, Method: PREINCUBATION): active; positive | mutagenic call (Test System: AMES SALMONELLA TYPHIMURIUM, Strain/Indicator: TA7005, Metabolic Activation: NONE, Method: PREINCUBATION): active; positive | mutagenic call (Test System: AMES SALMONELLA TYPHIMURIUM, Strain/Indicator: TA7006, Metabolic Activation: NONE, Method: PREINCUBATION): active; positive

Clc1cc(Cl)c(Cl)cc1Cl
mutagenic call (End Point: IN VITRO CHROMOSOMAL ABERRATIONS, Test System: CHO-LB CELLS, Metabolic Activation: NONE): inactive; negative | mutagenic call (End Point: IN VITRO CHROMOSOMAL ABERRATIONS, Test System: CHO-LB CELLS, Metabolic Activation: RAT, LIVER, S-9, AROCLOR 1254): inactive; negative | mutagenic call (Test System: AMES SALMONELLA TYPHIMURIUM, Strain/Indicator: TA98, Metabolic Activation: HAMSTER, LIVER, S-9, AROCLOR 1254, Method: STANDARD PLATE): inactive; negative | mutagenic call [2]: inactive; negative | mutagenic call (Test System: AMES SALMONELLA TYPHIMURIUM, Strain/Indicator: TA98, Metabolic Activation: RAT, LIVER, S-9, AROCLOR 1254, Method: STANDARD PLATE): inactive; negative | mutagenic call (Test System: AMES SALMONELLA TYPHIMURIUM, Strain/Indicator: TA100, Metabolic Activation: HAMSTER, LIVER, S-9, AROCLOR 1254, Method: STANDARD PLATE): inactive; negative | mutagenic call (Test System: AMES SALMONELLA TYPHIMURIUM, Strain/Indicator: TA100, Metabolic Activation: NONE, Method: STANDARD PLATE): inactive; negative | mutagenic call (Test System: AMES SALMONELLA TYPHIMURIUM, Strain/Indicator: TA100, Metabolic Activation: RAT, LIVER, S-9, AROCLOR 1254, Method: STANDARD PLATE): inactive; negative | mutagenic call (Test System: AMES SALMONELLA TYPHIMURIUM, Strain/Indicator: TA1535, Metabolic Activation: HAMSTER, LIVER, S-9, AROCLOR 1254, Method: STANDARD PLATE): inactive; negative | mutagenic call (Test System: AMES SALMONELLA TYPHIMURIUM, Strain/Indicator: TA1535, Metabolic Activation: NONE, Method: STANDARD PLATE): inactive; negative | mutagenic call (Test System: AMES SALMONELLA TYPHIMURIUM, Strain/Indicator: TA1535, Metabolic Activation: RAT, LIVER, S-9, AROCLOR 1254, Method: STANDARD PLATE): inactive; negative | mutagenic call (Test System: AMES SALMONELLA TYPHIMURIUM, Strain/Indicator: TA1537, Metabolic Activation: HAMSTER, LIVER, S-9, AROCLOR 1254, Method: STANDARD PLATE): inactive; negative | mutagenic call (Test System: AMES SALMONELLA TYPHIMURIUM, Strain/Indicator: TA1537, Metabolic Activation: NONE, Method: STANDARD PLATE): inactive; negative | mutagenic call (Test System: AMES SALMONELLA TYPHIMURIUM, Strain/Indicator: TA1537, Metabolic Activation: RAT, LIVER, S-9, AROCLOR 1254, Method: STANDARD PLATE): inactive; negative | mutagenic call (Test System: AMES SALMONELLA TYPHIMURIUM, Strain/Indicator: TA1538, Metabolic Activation: HAMSTER, LIVER, S-9, AROCLOR 1254, Method: STANDARD PLATE): inactive; negative | mutagenic call (Test System: AMES SALMONELLA TYPHIMURIUM, Strain/Indicator: TA1538, Metabolic Activation: NONE, Method: STANDARD PLATE): inactive; negative | mutagenic call (Test System: AMES SALMONELLA TYPHIMURIUM, Strain/Indicator: TA1538, Metabolic Activation: RAT, LIVER, S-9, AROCLOR 1254, Method: STANDARD PLATE): inactive; negative | mutagenic call (Test System: MOUSE LYMPHOMA, Strain/Indicator: L5178Y (TK+/TK-), Metabolic Activation: NONE, Method: SUSPENSION/PLATE): inactive; negative. reevaluation of results: negative | mutagenic call (Test System: MOUSE LYMPHOMA, Strain/Indicator: L5178Y (TK+/TK-), Metabolic Activation: RAT, LIVER, S-9, AROCLOR 1254, Method: SUSPENSION/PLATE): inactive; negative. reevaluation of results: negative
